# Assay results as given in patent US20260224678A1, “EXPEDITED NEOANTIGEN VACCINES” (priority 2023, published 2026).
# System: T cells
# Experiment: Elispot response after vaccination with neoepitope peptides
# Type: cell-based, human
# Settings: subject with R132H mutation of IDH1 vaccinated multiple times with two 9 mer peptides and a 15 mer peptide carrying the motifs
# Excerpt: As noted above, T cell exposed motif frequency is also a criterion for selection of vaccinal peptides from mutated passenger gene products. Table 10—(also replicated as FIG. 5) provides an example for a particular individual cancer-affected subject showing the selection of the most advantageous peptides based on frequency of occurrence in reference databases of pentamer counts and the subject's HLA alleles. When the pentamers in tumor specific T cell exposed motifs that expose a mutated amino acid are absent or low frequency in the human proteome, particular attention is paid to the frequency count in databases of exogenous proteins. In the table we show application of the representative gastrointestinal microbiome dataset. Application of this database should not be considered limiting and other reference sets likely to be indicative of prior epitope exposure may be applied. In this example the top two passenger mutations (in genes ARHGAP5 and ATIC) have T cell exposed motifs which are common. However, the lower two mutations (in CDC42 and CHD6) are poorly represented in the human and gastrointestinal microbiome reference datasets. Selected peptides for these two mutated proteins (margins boxed in FIG. 5) that best fulfil the criteria of frequency and also binding to this subject's known HLA alleles include SEQ ID NO.:s. 1891, 1897, 1898, 1914, 1915, 1916, 1921. In another embodiment a subject affected with a R132H mutation of IDH1 was vaccinated multiple times with two 9 mer peptides both exposing the mutant histidine. One peptide carried T cell exposed motif ~~~IGHHA~ (SEQ ID NO.: 1924) and the other carrying ~~~GHHAY~ SEQ ID NO.: 1925 and a 15 mer peptide comprising KP~I~GH SEQ ID NO.: 1927. A positive Elispot response was detected to SEQ ID NO.: 1924 and 1927 but not SEQ ID NO.: 1925.
# Methods of expansion of T cells and sequencing of the T cell receptors (TCR) therein are known to the art. […]
row,Substance,Elispot
1,1925 (GHHAY) [compound 1925],negative
2,1927 (KPIGH) [compound 1927],positive
3,1924 (IGHHA) [compound 1924],positive
